The source of these data is patent US7741348B2, “Bisheterocycle tandem compounds useful as antiviral agents, the uses thereof and the compositions comprising such compounds” (Shanghai Institute of Materia Medica, Chinese Academy of …, priority 2005, dated 2010).

Molecules are shown by their SMILES. ≈ marks a conversion by molar mass, not a printed value. Where two headings read alike, the source gives them in different places.

A word on the IC50: it is the concentration that gives 50% inhibition. The CC50 is the concentration at which the toxic effect on the cells reaches its halfway point.

The subject of one series is influenza A virus. Nature of the series: Anti influenza A virus activity, cytopathic effect (CPE) in MDCK cells. The format is cell-based. An excerpt:
(§1) 4. Screening of the samples for the anti-influenza virus A and B activity: MDCK (canine kidney) cells were used as the virus host to test the inhibition effect of the compounds of the present invention on the cytopathic effect (CPE) of the cells caused by the virus.
For orientation: Protection from cytopathic effect is a common read-out in antiviral testing.

The subject of another series is herpes virus I (HSV-I). Nature of the series: Anti herpes virus I activity, cytopathic effect in Vero cells. The format is cell-based. The note with it: read-out: Anti herpes virus I HSV-I (IC50). An excerpt: (§2) 3. Screening of the compounds for the anti-herpes virus I and II activity: Vero (African green monkey kidney) cells were used as virus host to test the inhibition effect of the compounds of the present invention on the cytopathic effect of the Vero cells caused by Herpes virus I and II.

Series [1] concerns MDCK (canine kidney) cells. Nature of the series: 50% toxicity concentration in the anti-influenza screen (MDCK cells). The following applies: 50% toxity concentration, Table 3-2 (influenza screen, MDCK cells). It is filed as cell-based.
Excerpt: as §1

Series [2] concerns Vero (African green monkey kidney) cells. Nature of the series: 50% toxicity concentration in the anti-herpes virus screen (Vero cells). The note with it: 50% toxity concentration, Table 3-1 (herpes virus screen, Vero cells).
Series [3] can be described thus: Cytotoxicity to HepG2.2.15 cells (MTT method). It is filed as cell-based. The following applies: human, HepG2.2.15 cells (HBV-transgenic human hepatoma cells), 50% death concentration, eighth day. An excerpt: (§3) Hepatitis B virus (HBV) transgenic human hepatoma carcinoma cell, HepG2.2.15 cell line, can secrete hepatitis B virus particles (containing antigen and DNA) into supernatant when being cultured.
(§4) Under action of antiviral drugs, the contents of HBsAg, HBeAg and viral DNA secreted from cells into the supernatant were detected and are compared with the contents of control groups without drugs, so that the antiviral activity of the compounds of the present invention can be measured as well as the cytotoxic effect of compounds of the present invention. The value concentration of the compounds of the present invention which caused 50% of cells dead and was measured with MTT method was CC50; and the value concentration of the compounds of the present invention which inhibited the secretion of HBsAg and HBeAg detected by ELISA method and inhibited 50% of viral DNA replication detected by fluorescent quantification PCR method was IC50.
(§5) HepG2.2.15 cells were inoculated on a 96-well plate, and the compounds of the present invention were added next day. The medium and the compound solutions of the same concentration were renewed periodically. The culture supernatants were collected on the eighth day to be detected. MTT was added to the cells on the 96-well plate, and MTT dissolving liquid was added after 4 hours to be reacted overnight. OD570 was measured next day on microplate reader. And the cytotoxicity of the compounds of the present invention to the HepG2.2.15 cells, the effect of the compounds of the present invention on the growth of the cells, and the concentration of the compound of the present invention (CC50) causing 50% of the cells dead were estimated according to the OD values.
In general terms: Formazan colour is commonly taken as a measure of viable cells.

In series [4] the test system is hepatitis B virus (HBV). Nature of the series: HBeAg secretion in HepG2.2.15 culture supernatant (ELISA). It is filed as cell-based. The note with it: HepG2.2.15 supernatant, eighth day, read-out: HBeAg secreation IC50.
Excerpt: as §3, §4, §5
(§6) HBsAg and HBeAg were detected with assaying kits (purchased from Sino-American biotechnological company). Samples were added to the coated strip plate, and the same amount of enzyme labeled conjugate was added, after reacting under 37° C. for 1 hour, the plate was washed 5 times. Colorant solutions A and B were added, and the reaction was stopped after 15 minutes, and OD450/630 was measured. The half inhibition rate IC50 of the sample for the HBV antigen was calculated according to the OD values.
For orientation: In an ELISA, binding on a coated surface is turned into a signal by an enzyme label.

For series [5], the system named is hepatitis B virus (HBV). Nature of the series: HBsAg secretion in HepG2.2.15 culture supernatant (ELISA). It is filed as cell-based. The note with it: HepG2.2.15 supernatant, eighth day, read-out: HBsAg secreation IC50.
Excerpt: as §3, §4, §5, §6

The test system of another series is herpes virus II (HSV-II). Nature of the series: Anti herpes virus II activity, cytopathic effect in Vero cells. It is filed as cell-based. The note with it: read-out: Anti herpes virus II HSV-II (IC50).
Excerpt: as §2

A further series addresses T1, HIV-1 integrase (Human immunodeficiency virus type 1 group M subtype B, UniProt P04585).
T1 construct: purified HIV-1 integrase
Nature of the series: HIV-1 integrase inhibition (ELISA, chain transfer). It is filed as biochemical. The following applies: enzyme inhibition. The procedure:
2. Screening of the compounds for the anti HIV-1 integrase activity: the synthesized 30 oligonucleotide (5′P-[…]-3′,3′-[…]-5′) was used as donor substrate, and the synthesized 20 oligonucleoside (5′-[…]-3′-biotin, biotin-3′-[…]-5′) was used as target substrate. On a 96-well plate, the donor substrate was added with purified HIV-1 integrase to conduct ELISA reaction. The product of chain transfer of target DNA was detected and stained in the biotin labeled alkaline phosphatase system, OD values were measured with microplate reader. Addition of the compounds of the present invention in the reaction system can be used to screen the inhibitor of the enzyme.

The next series concerns the target HIV-1 protease (Human immunodeficiency virus type 1 group M subtype B, UniProt P04585). Nature of the series: HIV-1 protease inhibition. It is filed as biochemical.
Where [6] appears, read: Human alphaherpesvirus 2, Vero cells, cytopathic effect.

As to `COC(=O)c1nc(-c2csc([C@@H](NC(=O)C3CC3)C(C)C)n2)oc1C` [Wang363.43-1], the 50% inhibitory concentration (IC50) turned out to be 3.97 µg/mL (≈ 10.9 µM) in the series with influenza A virus and 369 µg/mL (≈ 1020 µM) in the series on herpes virus I (HSV-I) (Human alphaherpesvirus 1, Vero cells, cytopathic effect). In addition, the TC50 in series [1] turned out to be 500 µg/mL (≈ 1380 µM); in [2] it was 707.11 µg/mL (≈ 1950 µM).
Consider `COC(=O)c1coc([C@H](C)NC(=O)c2nc(-c3csc([C@@H](NC(=O)C4CCCC4)C(C)C)n3)oc2C)n1` [Wang529.61-1], for which the half-maximal inhibitory concentration (IC50) in the series on influenza A virus amounted to 3.15 µg/mL (≈ 5.95 µM); in the series on hepatitis B virus (HBV) [4], 171 µM; in the series on hepatitis B virus (HBV) [5], 214 µM; in the series with herpes virus II (HSV-II) (setting [6]), 107 µg/mL (≈ 201 µM). In [3], this compound yielded a CC50 of 472 µM. Also, the results for the TC50 in [1] and in series [2] were 191.74 µg/mL (≈ 362 µM) and 198.43 µg/mL (≈ 375 µM), respectively.
For the compound `COC(=O)c1nc(-c2csc([C@@H](NC(=O)c3ccccc3)C(C)C)n2)oc1C` [Wang 399.46], the half-maximal inhibitory concentration (IC50) with influenza A virus is 1.14 µg/mL (≈ 2.85 µM); on HIV-1 integrase it was 365 µM. Moreover, in series [1], the TC50 is 166.67 µg/mL (≈ 417 µM).
Regarding `COC(=O)c1nc(-c2csc([C@@H](NC(=O)COCc3ccccc3)C(C)C)n2)oc1C` [Wang 443.52], the IC50 in the series with influenza A virus is 1.29 µg/mL (≈ 2.91 µM); in the series with herpes virus I (HSV-I) (Human alphaherpesvirus 1, Vero), 107 µg/mL (≈ 240 µM); in the series with herpes virus II (HSV-II) (Human alphaherpesvirus 2, Vero), 78.8 µg/mL (≈ 178 µM). In addition, the results for the TC50 in series [1] and in series [2] were 165.86 µg/mL (≈ 374 µM) and 168.24 µg/mL (≈ 379 µM), respectively.
In the case of `COC(=O)c1coc([C@H](C)NC(=O)c2nc(-c3csc([C@@H](NC(=O)C4CC4)C(C)C)n3)oc2C)n1` [Wang 501.56-1], the values for the IC50 in the series on influenza A virus and with herpes virus II (HSV-II) (setting [6]) were 1.18 µg/mL (≈ 2.35 µM) and 293 µg/mL (≈ 585 µM), respectively. Further, the TC50 was found to be 303.69 µg/mL (≈ 605 µM) in series [1] and 707.11 µg/mL (≈ 1410 µM) in [2].
For `COC(=O)c1nc(-c2csc([C@@H](NC(=O)c3csc([C@@H](NC(=O)OC(C)(C)C)C(C)C)n3)C(C)C)n2)oc1C` [Wang 577.72], the IC50 on HIV-1 protease was 57.6 µM; in the series with herpes virus II (HSV-II) (setting [6]), 97.6 µg/mL (≈ 169 µM). The same compound came in with a TC50 in [2] of 176.78 µg/mL (≈ 306 µM).
